The assay concerns Apc-/- mutant clones in crypts. Briefly: Short term clonal dynamics of Notumpos/Apc-/- clones in Lgr5-CreErt2;Apcfl/fl mice. The format is in vivo, mouse. The procedure:
Lgr5-EGFP-IRES-Cre^ERT2 Villin-Cre^ERT2, Rosa26mTmG, Apc^fl/fl and Kras^G12D mice have been described earlier^30-34. All in vivo experiments were approved by the animal experimentation committee at the Amsterdam UMC—location Academic Medical Center in Amsterdam under nationally registered licence number AVD1180020172125 and performed according to national guidelines. Mice were housed in a 12 hour light/12 hour dark cycle, with temperatures between 20-24° C. and 40-70% humidity. For short term assays, both male and female mice were used. For long term assays, only females were used to prevent the risk of preliminary dropout due to fighting male mice. All mice were between 6-12 weeks old at the start of the experiments. For all mouse experiments, sufficient sample sizes were determined based on previous studies with a similar study design^3,35. Experimental animals were randomly assigned to the control or lithium treated groups, clone sizes and adenoma counts were scored blindly. In vivo low-dose recombination was induced by intraperitoneal injection (i.p.) of 0.3 mg (for Rosa26^mTmG and Kras^G12D mice) or 2 mg (for Ape^−/− mice) tamoxifen (Sigma) dissolved in sunflower oil. […] Treatment with LiCl was initiated 7 days before recombination by i.p. injection of tamoxifen and was administered until the day they were sacrificed. For short term experiments to study stem cell dynamics, mice were sacrificed at day 4, 7, 10, 14, 21 days after intra peritoneal (i.p.) injection and intestines were removed and further processed for analyses. For long term adenoma formation experiments, mice were injected with 2 mg tamoxifen and sacrificed 60 days after i.p. injection. Mouse discomfort during tumour formation assays was closely monitored, and endpoints were determined as <15% weight loss within 2 days or a mouse grimace scale (MGS) score<3. […] After 60 days, intestines were removed and polyps were counted macroscopically.
After the mice were sacrificed, intestines were removed fully and washed thoroughly with ice-cold PBS. The intestines were cut into pieces of 5 mm, opened longitudinally and fixed overnight in 4% paraformaldehyde (PFA) solution. To preserve tissue integrity the intestines were kept in 30% sucrose solution for another night before freezing. Crypt bottoms were sliced with a thickness of […] at a Cryostar™ NX70 cryostat and placed on glass slips. Fluorescent lineage tracing labels were visualized with a SP8X Confocal (Leica), slides were counterstained with Hoechst-33342. RNA-ISH stained coupes were counterstained with hematoxylin and scanned using the IntelliSite Ultra Fast 1.6 slide scanner (Philips). For all crypt analyses, clone sizes were quantified as proportions of the crypt circumference (in eights, 1:8-8:8).
RNA in situ hybridisation (RNAscope) and Basescope was performed on fixed frozen intestinal tissue (mouse) and paraffine embedded tissue (mouse and human) according to manufacturer's protocol (ACD RNAscope® 2.5 HD—Brown and Red, and ACD BaseScope™ v2—Red). RNAscope was used for detection of mouse Notum (#428981), Wif1 (#412361), Dkk2 (#404841) or positive control Ppib (#313911) and human NOTUM (#430311) and positive control PPIB (#313901). BaseScope probe ApcE14-E16 (#703011) was used to detect recombined Apc alleles. RNAscope duplex was performed using the RNAscope Duplex Reagent Kit (#322430, ACD) with additional Lgr5 probe (#312171-C2). After RNAscope procedures tissues were counterstained for Hematoxylin or Hoechst-33342. RNAscope was quantified using QuPath software v0.2.2^39.
The clone data was modelled using the models and methods developed in Vermeulen et al.^3. An R package implementing the model was used and is available at https://qithub.com/MorrisseyLab/CryptDriftR.

In the case of `[Cl-].[Li+]` [LiCl, lithium chloride], where the note is “Lgr5-CreErt2;Apcfl/fl mice, oral LiCl”, the “Reduction of Lgr5 expression by Notumpos/Apc-/- clones within the same and neighbouring crypts” value is on record as “prevented this”. Also, where the note is “LiCl treated mice, day 21”, the “Number of Notumpos clones (crypts)” value is given as “reduced number of Notum^pos clones”. In addition, the “Probability of clonal fixation in a crypt (Pfix)” value (LiCl treated mice, model) is “markedly reduced probability of clonal fixation”. For the same molecule, the “Number of functional ISCs (WT stem cells, NWT) in crypts” value (LiCl treated mice, adapted drift model, 4.7 untreated with Apc-/- clones, 5.6 fully WT crypts) is recorded as 6.5 (95% Cl: 6.2-6.8). Besides, the “Probability of replacement (PR) of WT ISCs by Apc-/- ISCs” value (LiCl treated mice, inferred by stem cell drift model, untreated 0.65, neutral 0.5) is 0.34 (95% Cl: 0.31-0.37). Besides, the “Rate of Notumpos/Apc-/- clone expansion and fixation” value (LiCl versus non-treated mice, up to day 21) is listed as “significantly reduced”.

These data come from US20240091254A1, “WNT AGONISTS FOR PREVENTION OF CANCER” (ACADEMISH MEDISCH CENTRUM, priority 2021, published 2024).
